Experimental findings from article PMC7385359 are described below.

The series is described as follows: not told.

Several values for one entry are separate records, joined by “and”; a condition that tells them apart may be missing. Equal entries are not always repeated.

Turning to `COC(=O)C1CC2(CN1C(C)=O)CC2(F)F` (centres unmarked), the “log partition 1-octanol / water” value was 0.18 log10 and 0.03 log10. Turning to `COC(=O)C1CC2(CC2)CN1C(C)=O` (centres unmarked), the “log partition 1-octanol / water” value is reported as 0.19 log10.
